Test results reported in ChEMBL document CHEMBL1128542, “Synthesis and antiviral activity of benzyl-substituted imidazo [1,5-a]-1,3,5-triazine (5,8-diaza-7,9-dideazapurine) derivatives” (J Med Chem, 1995).

Experiments:
[1] = Minimum toxic concentration required to cause a microscopically detectable alteration of normal HeLa cell morphology; type: toxicity, cell-based; details: human, HeLa cells; read-out: MTC
[2] = Minimum toxic concentration required to cause a microscopically detectable alteration of normal MDCK cell morphology; type: toxicity, cell-based, Canis lupus familiaris; details: dog, MDCK cells; read-out: MTC
MDCK [3] = experiment: Inhibitory concentration against influenza virus A in MDCK cells; type: functional, cell-based; details: Canis lupus familiaris
[4] = system: Human immunodeficiency virus 2; experiment: Inhibitory concentration against HIV-2 replication; type: functional, organism-based
[5] = Minimum toxic concentration required to cause a microscopically detectable alteration of normal vero cell morphology; type: toxicity, cell-based; details: chlorocebus sabaeus, Vero cells; read-out: MTC
CCRF-CEM = experiment: Cytotoxic concentration required to inhibit CEM cell proliferation by 50%.; type: functional; details: Homo sapiens
MDCK [6] = experiment: Inhibitory concentration against influenza virus B in MDCK cells; type: functional, cell-based; details: Canis lupus familiaris
HeLa = experiment: Inhibitory concentration against respiratory syncytial virus in HeLa cells; type: functional, cell-based; details: Homo sapiens
Vero = experiment: Inhibitory concentration against parainfluenza-3 virus in vero cells; type: functional, cell-based; details: Chlorocebus sabaeus
[7] = system: Human immunodeficiency virus 1; experiment: Inhibitory concentration against HIV-1 replication; type: functional, organism-based

| Compound | MCC [1] [µM] | MCC [2] [µM] | IC50 (MDCK [3]) [µM] | IC50 [4] [µM] | MCC [5] [µM] | CC50 (CCRF-CEM) [µM] | IC50 (MDCK [6]) [µM] | IC50 (HeLa) [µM] | IC50 (Vero) [µM] | IC50 [7] [µM] |
| --- | --- | --- | --- | --- | --- | --- | --- | --- | --- | --- |
| Sc1ncnc2c(Cc3ccccc3)ncn12 | 16.5 | 16.5 | 4.9 | 17.7 | 24.7 | 35.1 | 3.3 | 3.3 | 33 | 20.6 |
| Cc1ncn2c(=O)[nH]c(=S)[nH]c12 | 549 | > 1100 | > 1100 |  | 1100 | 786 | > 1100 | > 550 | > 1100 |  |
| CSC1N=CNc2c(C)ncn21 (centres undefined) | 556 | 111 | 22.2 |  | 111 | 176 | 22.2 | 111 | > 222 |  |
| CSc1ncnc2c(Cc3ccc(C)cc3)ncn12 | 74 | 74 | 14.8 |  | > 370 | 389 | 74 | 22.2 | > 148 |  |
| Cc1nc(C)n2c(=O)[nH]c(=S)[nH]c12 | 510 | > 1020 | 510 |  | 1020 | 526 | > 1020 | > 510 | > 1020 |  |
| Cc1ccc(CSC2NC(=O)n3cnc(CCCCCOCc4ccccc4)c3N2)cc1 (centres undefined) | 44.6 | 223 | 5.3 |  | > 89.2 | 343 | 223 | 2.6 | > 22.3 |  |
| Cc1ccc(CSC2NC(=O)n3cnc(Cc4ccc(C)cc4)c3N2)cc1 (centres undefined) | 10.3 | 260 | 4.1 |  | > 260 | 44.6 | 51.9 | 1.4 | > 104 |  |
| Cc1nc(C)n2c1NC(SCc1ccccc1)NC2=O (centres undefined) | > 524 | > 699 | 69.9 |  | > 350 | 266 | 699 | 20.9 | > 140 |  |
| Cc1ccc(Cc2ncn3c(S)ncnc23)cc1 | 6.2 | 3.1 | 2.7 |  | 4.6 | 32.8 | 0.6 | 0.6 | 6.2 |  |
| Cc1nc(Cc2ccccc2)c2ncnc(O)n12 | 417 | > 833 | 625 |  | 417 | 262 | > 833 | > 417 | > 417 |  |
| Oc1ncnc2c(Cc3ccccc3)ncn12 | > 885 | > 885 | > 885 |  | > 885 | 633 | > 885 | 664 | > 885 |  |
| CSC1NC(=O)n2cnc(Cc3ccc(C)cc3)c2N1 (centres undefined) | 20.3 | 67.7 | 27.1 |  | > 339 | 75.3 | 67.7 | 4 | 136 |  |
| NC12CC3CC(CC(C3)C1)C2 [AMANTADINE] | 661 | > 661 | 661 |  |  |  | > 1320 | > 661 |  |  |
| NC(=O)c1ncn([C@@H]2O[C@H](CO)[C@@H](O)[C@H]2O)n1 [RIBAVIRIN] | > 820 | > 820 | 4.9 |  | > 1640 |  |  | 11.4 | 287 |  |
